Literature values in patent US6911441B2, “Prolonged release pharmaceutical composition” (Akzo Nobel N.V., priority 2002, dated 2005).
In brackets after ≈: the same amount, converted by molar mass.

System: Mannheimia haemolytica

In the case of CO/N=C(\C(=O)N[C@@H]1C(=O)N2C(C(=O)[O-])=C(C[n+]3cccc4c3CCCC4)CS[C@H]12)c1csc(N)n1 [Cefquinome], the MIC90 is listed as 0.25 µg/mL (≈ 0.473 µM).
